Results reported in US9175055B2, “Use of fibromodulin and lumican for increasing muscle mass” (ASSOCIATION FRANCAISE CONTRE LES MYOPATHIES, priority 2011, dated 2015).
Values joined by “and” are separate entries in the source; they are usually repeats but may differ in a detail not shown here. Identical values can stand only once.

Key:
[1] = molecular target: T1, mature myostatin (Mus musculus, UniProt O08689); test: ELISA-type test of direct interaction of biotinylated fibromodulin peptides with coated myostatin; type: binding; conditions: FIG. 3
T1 sequence (O08689 268-376): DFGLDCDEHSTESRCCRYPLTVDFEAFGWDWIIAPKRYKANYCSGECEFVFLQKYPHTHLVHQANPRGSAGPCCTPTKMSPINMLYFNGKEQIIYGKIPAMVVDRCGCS
Excerpt: The ELISA test (Enzyme Linked ImmunoSorbent Assay) is a test for detecting and/or assaying a protein present in a biological fluid. In the technique known as “sandwich” assay, the wells of a microtiter plate are covered with a capture antibody capable of binding specifically to the desired antigen. During this operation called “coating”, the capture antibody binds to the plastic of the wells by electrostatic interaction. The capture antibody ensures the specificity of the test. The solution to be tested is then deposited into the wells of the microtiter plate and, if the desired antigen is present, it will bind specifically to the capture antibody. A second antibody, the tracer antibody, capable of binding to the captured antigen is then added to the wells, and the unbound tracer antibodies are eliminated by rinsing. The tracer antibody is coupled to an enzyme catalyzing the formation of a colored product.
The principle of this technique was used to study the direct interaction of the mature myostatin with the peptides 69-101 Fmod Biotin and 69-101 Fmod Biotin mutated (see sequences below). For this, 3 μl of myostatin at a concentration of 100 ng/μl are taken up in 50 μl of carbonate buffer and added to each well of the assay plate (R&D Systems DY990). After an overnight incubation at 4° C., the plate is washed with 100 μl of PBS-Tween (0.05% Tween 20), then the blocking step to saturate non-specific sites is carried out for 2 hours at room temperature with 100 μl of PBS and 6% of milk per well. Five successive washes with 200 μl of PBS-Tween (0.05% Tween 20) are performed and increasing amounts of biotinylated fibromodulin peptides are then deposited (100 μl final in PBS) and the plate is incubated for 1 hour at 37° C. For the positive control, an antibody of goat anti-myostatin (≠AF788, R&D Systems), which was deposited in the control wells and incubated for 1 hour at 1/100th (0.1 mg/ml) was […]. The wells were then washed 5 times with PBS-Tween (0.05% Tween 20). To detect binding of the biotinylated peptides to MSTN, streptavidin-HRP (≠N100, Pierce) was used at 1/20,000th. was added to the wells. For the controls points with the goat anti-myostatin antibody, an HRP-marked (≠ab6885, Abcam) polyclonal secondary donkey anti-goat antibody was added (at 1/4000th)). After five washes, adding the peroxidase substrate, the TMB Substrate Reagent Set (Tetramehylbenzidine, OptEIA, ≠555214) allows the obtention of a colored reaction proportional to the quantity of HRP present in the wells. The reaction is stopped after 20 minutes by addition of sulfuric acid 2N, and the plate is read at 450 nm on a Discovery HT-R spectrophotometer (Bio-TEK).
Buffer Composition: 0.1 M carbonate buffer: 4.2 g NaHCO3, 1.78 g of […] in 500 ml of H20 MilliQ, pH 9,5. Storage at 4° C.

[2] = molecular target: T2, recombinant murine myostatin (Mus musculus, UniProt O08689); test: Inhibition of myostatin activity, pGL3-(CAGA)12-Luc reporter in HEK293T cells; type: cell-based; conditions: 2.5 nM myostatin, FIG. 1 and 2
T2 sequence (O08689 268-376): T1 sequence (O08689 268-376)
Excerpt: The plasmidic construction pGL3-(CAGA)12-firefly luciferase (notated pGL3-(CAGA)12-Luc) obtained by MTA of the Pr. Carl-Henrik Heldin (Ludwig Institute for Cancer Research, Sweden) contains 12 CAGA copies of the consensus SBE (Smad Binding Element) consensus sequence and allows to indirectly measure the binding of myostatin to its receptor. Indeed, when myostatin binds to the receptor Activin IIb, the Smad 3 and 4 proteins are activated and will bind to the 12 CAGA copies. The promoter of the cassette pGL3-(CAGA)12-Luc is thus activated, which results in luciferase production. The myostatin/Activin IIb binding can be followed, therefore, by measuring the luciferase.
The ability of the peptides to inhibit the in vitro activity of the myostatin has been evaluated on embryonic human kidney cells 293T by means of the pGL3-(CAGA)12-Luc construction. For this, 350,000 293T cells were placed per well in a 24-well plate. After 24 hours of culture, the cells were transfected with a mixture of 8 μl de PEI (PEI 25 kDa; Sigma) and 2 μg of plasmide pGL3-(CAGA)12-Luc/well. […] Twenty-four hours after transfection, 2.5 nM of recombinant murine myostatin, mixed or not mixed with various quantities of fibromodulin or lumican peptides were added to each well. […] Twenty-four hours after incubation, the cells were lysed, then collected to be assayed for luciferase activity and the quantity of protein.

[3] = system: mdx mice; test: Comparative muscle hypertrophy 18 days after intramuscular injection of peptides in dystrophic mdx mice; type: in vivo; conditions: for Hypertrophy %: 18 days after IM injection, average of five mdx mice, TAG versus TAD; for increase in muscular hypertrophy, factor compared to decorin: day 18, mdx mice
Protocol: (§1) Mdx mice (C57BL/10ScSn-DmD^max/J) from colonies maintained at Genethon. Mice aged at least six weeks were used. All experiments were performed in accordance with European ethical rules regarding the use of animals for experimental research.
(§2) Intramuscular injection is performed on animals anesthetized at the tibialis anterior muscle (TA). The injected volume was around 20-35 μl. The injection is performed in the middle of TA Left (TAG). An equal volume of NaCl 150 mM/15 μM ZnCl2 was systematically injected into the right anterior tibialis (TAD) to serve as a control. After a specified number of days after the injection, the TAD and TAG were taken after sacrificing the mice, which were weighed and frozen for histological studies.
(§3) The peptide fibromodulin (Fmod, SEQ ID NO: 2) and lumican (mLumican, SEQ ID NO: 5) were dissolved in water and stored at −80° C. For the injections, the preparation procedure is as follows: 24-40 hours before the injection, the desired quantity of peptide is removed from the stock solution and mixed with a solution of zinc chloride (ZnCl2) and 150 mM NaCl so as to have a final concentration of 15 μM of zinc. The peptide was stored at 4° C. until injection.
4/In vivo Comparative Study of Muscle Hypertrophy 18 Days after Injection of Dystrophic mdx Mice with Decorin Peptide (MdCN 31-71, SEQ ID NO: 75), Fibromodulin (mFmod 69-101) or lumican (mLum 30-62):
The TAD and TAG muscles were removed 18 days after injection of the peptides, and then weighed. The experiment was performed on five separate mice.

[4] = system: mdx mice; test: Muscle weight on D20 after intramuscular injection into Tibialis Anterior of mdx mice; type: in vivo; conditions: D20, individual mdx mice
Protocol: as §1, §2
as §3, with “injection. […]” for “injection.”
On D20, the mice were sacrificed and the weight of the TAG and TAD muscles was measured.

Row | Substance | interaction with myostatin (absorbence at 450 nm) ([1]; in the presence of zinc) | induction of the pCAGA-Luc promoter (inhibition of myostatin activity) [2] | Hypertrophy % [3] [%] | increase in muscular hypertrophy, factor compared to decorin [3] | other results
1 | Biotine-PPPEPRDCPQECDCPPNFPTAMYCDNRNLKYLP-CONH2 [biotinylated mFmod 69-101] | direct interaction takes place | – | – | – | –
2 | YGQISPNCAPECNCPHSYPTAMYCDDLKLKSVP (30-62 mouse lumican) [mLum 30-62, fragment corresponding to residues 30 to 62 of murin lumican] | – | net inhibition of the promoter in a dose-dependent manner | 37.26 ± 14.69 | 3.7 | –
3 | Biotine-PPPEPRDCPQEADAPPNFPTAMYADNRNLKYLP- CONH2 [mutated biotin mFmod peptide] | no interaction is visible | – | – | – | –
4 | PPPEPRDCPQECDCPPNFPTAMYCDNRNLKYLP (69-101 mouse fibromodulin Fmod) [mFmod 69-101, fragment corresponding to residues 69-101 of murine fibromodulin] | – | net inhibition of the promoter in a dose-dependent manner | 29.34 ± 15.76 | 2.9 | Weight of injected muscle (TAG) ([4]; 50 μg peptide + 15 μM ZnCl2 IM in left Tibialis Anterior): 66.5 mg and 75.4 mg and 74.6 mg and 65.2 mg and 73.9 mg; Growth (TAG versus control TAD) ([4]; 50 μg peptide + 15 μM ZnCl2 IM): 22.24% and 5.31% and 19.94% and 5.33% and 12.31%; interaction with myostatin (absorbence at 450 nm) ([1]; in the absence of zinc): no interaction is seen; amount of peptide from which a plateau of absorbence is obtained ([1]; in the presence of zinc): ≥ 4.2 µg
5 | mDCN 31-71: Decorin Peptide (MdCN 31-71, SEQ ID NO: 75), comparator from prior art WO 2010/106295 (DEASGIIPYDPDNPLISMCPYRCQCHLRVVQCSDLGLDKVP; 31-71 mouse decorin fragment) [reference compound] | – | – | 10.02 ± 8.3 | – | –
